Results as given in paper PMC4325551, “Inhibition of Rat 5α-Reductase Activity and Testosterone-Induced Sebum Synthesis in Hamster Sebocytes by an Extract of Quercus acutissima Cortex” (Evidence-based Complementary and Alternative Medicine : eCAM, 2015).

Tests used:
[1] = biological target: T1, rat liver microsomal 5α-reductase (Rattus norvegicus, UniProt P24008); experiment: 5α-reductase assay using rat liver microsomes (testosterone metabolism, HPLC and TLC); type: biochemical; details: for Inhibitory activity on 5α-reductase (% of control): mean ± SEM, N = 3
T1 construct: The reaction was started with the addition of liver microsomes (20 μg protein); from tissue; host or cells: liver microsomes of male Sprague–Dawley rats
T1 sequence (P24008 1-259): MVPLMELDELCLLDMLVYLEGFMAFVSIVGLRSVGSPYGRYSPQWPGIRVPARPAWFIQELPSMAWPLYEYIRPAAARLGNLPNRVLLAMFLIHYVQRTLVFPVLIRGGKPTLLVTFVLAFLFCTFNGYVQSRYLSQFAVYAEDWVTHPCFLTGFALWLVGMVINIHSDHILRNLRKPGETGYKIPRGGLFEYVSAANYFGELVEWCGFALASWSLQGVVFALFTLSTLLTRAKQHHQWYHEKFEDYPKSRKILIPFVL
Experimental: Rat liver microsomes were prepared by the method of Lee et al.. Male Sprague–Dawley rats (body weight, 300 to 320 g; Clea Japan, Tokyo, Japan) were fasted overnight to decrease the concentration of liver glycogen and then sacrificed. The liver was excised and washed in ice-cold homogenizing buffer containing 0.32 mol/L sucrose, 1 mmol/L dithiothreitol (Wako Pure Chemical Industries), and 20 mmol/L potassium phosphate, pH 6.5. The following procedures were all carried out at 4°C. The tissue was minced with a pair of scissors and then homogenized in homogenizing buffer using a Potter-Elvehjem grinder. The homogenate was then centrifuged at 10 000 g for 10 min. The resulting pellet was washed with two pellet volumes of homogenizing buffer and centrifuged again. The supernatants from the two centrifugations were combined and further centrifuged at 105 000 g for 1 h. The resulting pellet (microsomes) was suspended in homogenizing buffer and centrifuged again. The microsomes were resuspended in homogenizing buffer. The microsome suspension was divided into small aliquots and stored at −80°C. The microsomes were diluted with 40 mmol/L potassium phosphate, pH 6.5, immediately before use. Unlike human liver, rat liver microsomes have the 5α-R1 but not the 5α-R2 isoform.
Briefly, the reaction solution was preincubated with or without a test sample in 1 mmol/L dithiothreitol, 40 mmol/L potassium phosphate, pH 6.5, 100 μmol/L NADPH (Oriental Yeast, Tokyo, Japan), and 3.5 μmol/L testosterone (Wako Pure Chemical Industries) in a final volume of 0.5 mL for 20 min at room temperature. The reaction was started with the addition of liver microsomes (20 μg protein). After incubation at 37°C for 30 min, the reaction solution was extracted with 2 mL ethyl acetate. The ethyl acetate phase (upper phase) was transferred to a tube and evaporated using a centrifugal concentrator (Tomy Seiko, Tokyo, Japan). Testosterone and the metabolites were measured by two chromatography methods, HPLC (Shimadzu, Kyoto, Japan) and TLC.
The residue was dissolved in acetonitrile and analyzed using the HPLC system. The reverse-phase HPLC analysis was performed on a C18 column (3.0 × 150 mm, GL Science, Japan) at a column oven temperature of 50°C and UV detection of 240 nm. The isocratic mobile phase of acetonitrile/water (50 : 50, v/v) was flowed at 0.4 mL/min through the column.
To detect the steroids by TLC, the residue containing steroids was taken up in ethanol and chromatographed on a TLC plate (Silica gel 60 F254, Merck, Darmstadt, Germany), using ethyl acetate-hexane (1 : 1, v/v) as the developing solvent system at room temperature. Testosterone, (Tokyo Chemical Industry Co., Tokyo, Japan) and 5α-androstane-3α,17β-diol (Sigma-Aldrich) were applied to TLC as androgen standards. The plate was exposed to 10% sulfuric acid using an atomizer and then heated on a hot plate. The fluorescent signals were visualized by irradiation of UV light at 302 nm using a ChemiDoc XRS Plus (BIO-RAD, Hercules, CA).

[2] = tested on: primary hamster sebocytes (Ha-SE); experiment: testosterone-induced sebum synthesis (lipogenesis) assay in hamster sebocytes; type: cell-based; details: 10 and 30 μmol/L; 10 μmol/L testosterone; 8 days
Experimental: (§1) Primary hamster sebocytes (Ha-SE) were purchased from Kurabo Industries (Osaka, Japan) and maintained in a culture medium containing […] epidermal growth factor (EGF), 2% (v/v) human serum (HS), 8% (v/v) heat-inactivated fetal bovine serum (FBS) (Kurabo Industries), and a cocktail of penicillin G and streptomycin (Sigma-Aldrich). All assays using Ha-SE cells were performed between the 5th and 6th passage. For the study dealing with sebum synthesis, a sebum detecting kit (Kurabo industries) was used. […] The amount of sebum synthesized was evaluated by measuring lipid production and cell growth according to the manufacturer's instructions. That is, the lipid in sebaceous cells was stained with Oil Red O, extracted in 100% isopropanol, and quantified by a spectrometer at 520 nm. The cell growth was measured using XTT reagent (Biological Industries, Beit Haemek, Israel). The lipogenesis was calculated following the formula as relative sebum synthesis per cell number: lipogenesis = A/B, where A = OD 520 nm of 200 μL extract solution of 300 μL 100% isopropanol for extract of Oil red O dye and B = OD 465/630 nm of 200 μL of 450 μL culture fluids containing XTT reagent following incubation for 30 min. […]

[3] = tested on: primary hamster sebocytes (Ha-SE); experiment: insulin-induced sebum synthesis (lipogenesis) assay in hamster sebocytes; type: cell-based; details: 10 and 30 μmol/L; 10 μg/mL insulin; 8 days
Experimental: as §1

[4] = tested on: primary hamster sebocytes (Ha-SE); experiment: cell cytotoxicity (XTT) in undifferentiated hamster sebocytes; details: 24 h with BK (10, 30 μg/mL) or pentagalloyl glucose (10, 30 μmol/L) in the presence of EGF
Experimental: Four Figures and Two Tables
Hamster-derived sebaceous gland cells (Ha-SE) were precultured until confluent in the presence of 10 ng/mL epidermal growth factor (EGF), and further cultured with 10, 30 […]
vehicle in the presence of EGF. Twenty four hours later, cell cytotoxicity was measured […]
Fig. S2. Bioconversion of exogenous dihydrotestosterone to 5α-androstane-3,17-diol by rat liver microsomal enzymes […]
min in the presence or absence of rat liver microsomes (40 μg/mL) and the co-factors.
The metabolites were extracted with ethyl acetate after incubation, and analyzed by TLC. All androgen standards were applied at 0.1 μg/μL/spot. T.: testosterone, DHT: dihydrotestosterone, A.diol: 5α-androstane-3α,17β-diol

[5] = tested on: human intestinal epithelial Caco-2 cells; parameters: method as in PMID 16890919, PMID 16580640; details: transport inhibited by phlorizin (SGLT-1 inhibitor); ref [34], [35]; cited from earlier work

For `O=C(OC[C@H]1O[C@@H](OC(=O)c2cc(O)c(O)c(O)c2)[C@H](OC(=O)c2cc(O)c(O)c(O)c2)[C@@H](OC(=O)c2cc(O)c(O)c(O)c2)[C@@H]1OC(=O)c1cc(O)c(O)c(O)c1)c1cc(O)c(O)c(O)c1` [Pentagalloyl glucose, 1,2,3,4,6-penta-O-galloyl glucose], the “inhibition of 5α-reductase activity” value ([1]; at 10 and 100 μmol/L) was “more than 50%”, the “Inhibitory activity on 5α-reductase (% of control)” value ([1]; test sample 0.1 μmol/L, testosterone 3.5 μmol/L, 30 min, rat liver microsomes 40 μg/mL, HPLC) was 5.4 ± 1.3 % of control and the “Inhibitory activity on 5α-reductase (% of control)” value ([1]; test sample 1 μmol/L, testosterone 3.5 μmol/L, 30 min, rat liver microsomes 40 μg/mL, HPLC) was 36.1 ± 6.5 % of control. For the same compound, the “Inhibitory activity on 5α-reductase (% of control)” value ([1]; test sample 10 μmol/L, testosterone 3.5 μmol/L, 30 min, rat liver microsomes 40 μg/mL, HPLC) was 83.5 ± 1.3 % of control, the “Inhibitory activity on 5α-reductase (% of control)” value ([1]; test sample 100 μmol/L, testosterone 3.5 μmol/L, 30 min, rat liver microsomes 40 μg/mL, HPLC) was 107.9 ± 2.2 % of control and the IC50 ([1]; testosterone 3.5 μmol/L, 30 min, rat liver microsomes 40 μg/mL, HPLC) was 2500 nM. The testosterone-induced lipogenesis [2] was “significantly downregulated”, the insulin-induced lipogenesis [3] was “significantly downregulated” and the cell metabolic activities [4] was “not changed compared with the vehicle control”. The “transport across Caco-2 monolayer” value [5] was “crosses a monolayer”.
